# Experiment: Percent drug release of poorly soluble drugs combined with sugar alcohols
# Type: physicochemical
# Details: for effect on percent release: with sugar alcohols like mannitol or sorbitol, as physical mixture or complex
effect on percent release,effect on percent drug release (co-micronized with sugar alcohols vs formulation not co-micronized with a sugar alcohol),Structure (SMILES)
does not make any significant difference,–,O=C1CCc2ccc(OCCCCN3CCN(c4cccc(Cl)c4Cl)CC3)cc2N1 [aripiprazole]
–,significant increase,"CCN(CC)C(=O)/C(C#N)=C/c1cc(O)c(O)c([N+](=O)[O-])c1 [entacapone, (E)-2-cyano-3-(3,4-dihydroxy-5-nitrophenyl)-N,N-diethyl-2-propenamide]"
does not make any significant difference,–,CCCCC1=NC2(CCCC2)C(=O)N1Cc1ccc(-c2ccccc2-c2nnn[nH]2)cc1 [irbesartan]

# From patent publication US8728517B2, “Pharmaceutical compositions of entacapone co-micronized with sugar alcohols” (Wockhardt Ltd., priority 2008, dated 2014)
